Key:
[1] = Antiproliferative activity against murine BaF3 cell line expressing NPM-ALK
[2] = Antiproliferative activity against human NPM-ALK positive anaplastic large cell lymphoma karpas299 cell line

IC50 [1] [µM] | IC50 [2] [µM] | SMILES
> 25 | 11.2 | CN1CCN(Cc2ccc(NC(=O)c3cc(-c4ccc5c(c4)OCO5)c[nH]c3=O)cc2)CC1 [5-benzo[1,3]dioxol-5-yl-2-oxo-1,2-dihydro-pyridine-3-carboxylic acid [4-(4-methyl-piperazin-1-ylmethyl)-phenyl]-amide]
– | 7.5 | CN1CCN(CCc2ccc(NC(=O)c3cc(-c4ccc5c(c4)OCO5)c[nH]c3=O)cc2)CC1 [5-benzo[1,3]dioxol-5-yl-2-oxo-1,2-dihydro-pyridine-3-carboxylic acid {4-[2-(4-methyl-piperazin-1-yl)-ethyl]-phenyl}-amide]
13.7 | – | CN1CCN(CCCc2ccc(NC(=O)c3cc(-c4ccc5c(c4)OCO5)c[nH]c3=O)cc2)CC1 [5-benzo[1,3]dioxol-5-yl-2-oxo-1,2-dihydro-pyridine-3-carboxylic acid {4-[3-(4-methyl-piperazin-1-yl)-propyl]-phenyl}-amide]

From BindingDB's records for doi:10.1021/jm050824x (Chembridge Research Laboratories and Chembridge, 2006)
